Experimental data from the NIST ThermoML archive (doi:10.1016/j.jct.2015.12.018).
± gives the expanded uncertainty stated by the source.

Assay: molar enthalpy of vaporization or sublimation
Conditions: 298.15 K; Crystal; Static calorimetry

Compound | molar enthalpy [kcal/mol]
O=C1OCc2ccccc21 [1(3H)-isobenzofuranone] | 21.1 ± 1.05
O=C1OC(=O)c2ccccc21 [isobenzofuran-1,3-dione] | 21 ± 1.12
